This is an account of results in patent US20210171579A1, “INHIBITOR USING PLANT CYCLOPEPTIDE AS EFFECTIVE COMPONENT FOR LIPID METABOLIC ABNORMALITIES IN CANCER CELLS AND USES THEREOF” (CHINA PHARMACEUTICAL UNIVERSITY, priority 2017, published 2021).

For data set [1], the system named is human liver cancer HepG2 cell line. Put plainly: Indexes related to lipid metabolism in human liver cancer cells (commercial kits). The data set is classed as cell-based. Conditions: HepG2, 24 h treatment, FIG. 2. As for the experimental part:
(§1) In-vivo antineoplastic activity and activity of inhibiting abnormal lipid metabolism of tumors of the RAs are verified by establishing a nude mouse subcutaneously transplanted tumor model with liver cancer cells.
An overnight human liver cancer HepG2 cell line is cultivated by a 10% FBS medium. Pancreatin is added for digestion to form a cell suspension, which is inoculated onto a 6-well plate according to an appropriate concentration. After 24 h, the RA-V or the RA-XII is added for treatment for 24 h. Digestion is conducted with the pancreatin. Centrifugation is conducted for 5 to 10 min at a room temperature and 2000 rpm, and cells are collected. The cells are resuspended once with pre-cooled 1×PBS (4° C.), centrifuged for 5 to 10 min at 2000 rpm, and washed. By adopting commercial kits, contents of total cholesterol and triglycerides in the cells are detected through a single reagent GPO-PAP method respectively, and contents of low-density lipoproteins and high-density lipoproteins in the cells are detected through a double-reagent direct method (the commercial kits are purchased from the Nanjing Jiancheng Bioengineering Institute, with article numbers of A111-1, A110-1, A113-1 and A112-1 respectively).

For data set [2] the test system is unchanged. Put plainly: Growth inhibition of human liver cancer cells, SRB method. The conditions noted are these: HepG2, 24 h treatment, FIG. 1. The data set is classed as cell-based. The procedure: as §1
Cell viability is determined by adopting an SRB method. An overnight human liver cancer HepG2 cell line (purchased from the Cell Bank of Committee on Type Culture Collection of Chinese Academy of Sciences) is cultivated by a 10% FBS medium. Pancreatin is added for digestion to form a cell suspension, which is inoculated onto a 96-well plate according to an appropriate concentration at 100 μl/well. Cultivation is conducted in a CO2 incubator for 24 h until cells adhere to walls completely. Different final concentrations of RA-XII are added, after acting for 24 h, 50 μl of a 4° C. pre-cooled TCA solution (30%, w/v) is added into each well for fixing of the cells, and a final concentration of the TCA solution is 10%. The 96-well plate is transferred into a 4° C. refrigerator for fixing for 1 h after still standing for 5 min. The 96-well plate is taken out, washed 5 times with deionized water, and aired at a room temperature. […] Optical densities are determined at 540 nm by adopting a microplate reader.
In general terms: The SRB assay estimates cell density from bound dye.

The nature of data set [3]: Weights of nude mice in the in-vivo antineoplastic test. Conditions: caudal vein dosing every other day, 21 days, FIG. 4. More on the design: species or system BABL/c nude mice. As for the experimental part:
(§2) HepG2 is diluted into […] with a serum-free MEM. 100 μL of cell suspension is taken and inoculated to left armpits of BABL/c nude mice subcutaneously, and grows for 7 days to form a tumor-bearing mouse model. Inoculated and well-grown tumor-bearing mice are grouped at random, and dosed with the RA-XII once through caudal veins every other day. While dosing, sizes of tumors are measured with a vernier caliper (a tumor volume=a long diameter×a short diameter^2/2), and weights of the nude mice are recorded and counted. The used animals are killed after dosed for 21 days, and tumors are peeled and photographed.

Data set [4] deals with tissues of HepG2 subcutaneously transplanted tumors. As to the kind of experiment: Lipid droplets in tissues of subcutaneously transplanted tumors, Oil Red staining. Type of data set: in vivo, BABL/c nude mice. Conditions: tumor tissues from Embodiment 4, Oil Red staining of cryosections, FIG. 6. The procedure: as §2
Tissues of the tumors obtained in Embodiment 4 are taken and embedded by OCT and then rapidly cooled. Cryostat serial sectioning is conducted with a thickness being 20 μm. Drying is conducted for 30 min at a room temperature. Fixing is conducted with 4% paraformaldehyde for 30 min. Staining is conducted with an Oil Red working solution for about 30 min at the room temperature. Washing is conducted with PBS twice. Sections are sealed with a glycerin jelly. Overnight drying is conducted, and pictures are taken under a microscope.

Data set [5] deals with HepG2 subcutaneously transplanted tumors. Put plainly: In-vivo antineoplastic test, nude mouse subcutaneously transplanted tumor model. Also on record: species or system BABL/c nude mice. The conditions noted are these: caudal vein dosing every other day, 21 days, FIG. 4. The procedure:
as §1, §2

Data set [6] concerns tissues of HepG2 subcutaneously transplanted tumors. Put plainly: Indexes related to lipid metabolism in tissues of subcutaneously transplanted tumors. The data set is classed as in vivo, BABL/c nude mice. Conditions: tumor tissues from Embodiment 4, RIPA lysate, FIG. 5. The procedure: as §2
Tissues of the tumors obtained in Embodiment 4 are taken and lysed with an RIPA lysate. Then contents of cholesterol, triglycerides, low-density lipoproteins and high-density lipoproteins are detected by adopting commercial kits (specific methods are the same as Embodiment 2).

The subject of data set [7] is human liver cancer HepG2 cell line. As to the kind of experiment: Lipid droplet formation in human liver cancer cells, Oil Red staining. The conditions noted are these: HepG2, 24 h treatment, FIG. 3. The data set is classed as cell-based. The procedure:
as §1
0.5 g of pre-ground and pre-crushed dried Oil Red powder (purchased from Sigma Company) is weighed, and dissolved in a small amount of isopropanol. Then isopropanol is added to reach 100 ml. A solution is sealed in a brown bottle (or packaged with tin foil paper for avoiding light) for preservation at 4° C. as a storage solution, which may be preserved for a long time. When using, 6 ml of the solution is taken, and 4 ml of tri-distilled water is added to be evenly mixed. The mixed solution is filtered by qualitative filter paper into a working solution, which is used up within a few hours after diluted. An overnight human liver cancer HepG2 cell line is cultivated by a 10% FBS medium. Pancreatin is added for digestion to form a cell suspension, which is inoculated onto a 24-well plate according to an appropriate concentration. After 24 h, the RA-XII is added for treatment for 24 h. A cultivation solution is poured out carefully and slowly. Fixing is then conducted with 4% paraformaldehyde for 30 min. Staining is conducted with an Oil Red working solution for about 30 min at the room temperature. Washing is conducted with PBS twice. Pictures are taken under a microscope.

As to `COc1ccc(C[C@H]2C(=O)N[C@@H](C)C(=O)N(C)C3Cc4ccc(cc4)Oc4cc(ccc4O)C[C@@H](C(=O)N[C@H](C)C(=O)N[C@@H](C)C(=O)N2C)N(C)C3=O)cc1` [RA-V], in data set [1], the “high-density lipoproteins content in cells” value is on record as “no obvious influence”, the “low-density lipoproteins content in cells” value was “obviously inhibit expression”, the “total cholesterol content in cells” value is recorded as “obviously inhibit expression” and the “triglycerides content in cells” value was “obviously inhibit expression”.

As to `COc1ccc(C[C@H]2C(=O)N[C@@H](C)C(=O)N(C)C3Cc4ccc(cc4)Oc4cc(ccc4O[C@@H]4OC(CO)[C@@H](O)[C@H](O)C4O)C[C@@H](C(=O)N[C@H](C)C(=O)N[C@@H](C)C(=O)N2C)N(C)C3=O)cc1` (some centres unmarked) [RA-XII], in data set [1], the “high-density lipoproteins content in cells” value is listed as “no obvious influence”, the “low-density lipoproteins content in cells” value was “obviously inhibit expression”, the “total cholesterol content in cells” value is listed as “obviously inhibit expression” and the “triglycerides content in cells” value is given as “obviously inhibit expression”. In data set [2], the “proliferation of tumor cells (cell viability, SRB)” value is on record as “inhibits rapid proliferation of tumor cells”. The “weights of the nude mice” value in data set [3] was “no obvious influence”. Further, the “number of lipid droplets in tumor tissues” value in data set [4] was “obviously reduce the number of the lipid droplets”. The “growth speed of subcutaneously transplanted tumors (tumor volume)” value in data set [5] is listed as “obviously reduce a growth speed”. Besides, in data set [6], the “high-density lipoproteins in tumor tissues” value is “no obvious influence”, the “low-density lipoproteins in tumor tissues” value is “obviously inhibit expression”, the “total cholesterol in tumor tissues” value was “obviously inhibit expression” and the “triglycerides in tumor tissues” value is given as “obviously inhibit expression”. Further, the “number of lipid droplets in tumor cells” value in data set [7] is reported as “obviously reduce the number of the lipid droplets”.
